According to patent US12344610B2, “APOL1 inhibitors and methods of use” (Maze Therapeutics, Inc., priority 2022, dated 2025):
Read-outs that look alike come from different tables or passages of the source.

Key:
Type in all cases: cell-based
Settings in all cases: geometric mean of at least 2 assay runs, † = single assay run
[1] = system: Trypanosoma brucei Lister 427 VSG221 with APOL1 G1 recombinant protein; assay: APOL1 G1 trypanosome cell rescue assay (Example B5)
In short: (§1)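 Viability read by CellTiter-Glo luminescence after 20 h co-incubation (37° C, 5% CO2) of 250 trypanosomes/well in modified HMI-9 with test compound (duplicate 11-point, 2-fold dilutions, 0.4% DMSO) and APOL1 protein, […]. Protein: mature residues 28-398, E. coli inclusion-body refolded, tag cleaved, in DDM.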

[2] = system: HEK293 cells overexpressing APOL1 G2; assay: APOL1 G2 HEK293 cell rescue assay (reversal of cell death caused by overexpression of APOL1)
In short: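 Each compound tested in duplicate wells on one plate per run, with values usually the geometric mean across at least two runs on different days, occasionally from one run only. Read-out: concentration giving half-maximal rescue of APOL1 G2 overexpression-induced death of HEK293 cells.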

[3] = system: Trypanosoma brucei Lister 427 VSG221 with APOL1 G2 recombinant protein; assay: APOL1 G2 trypanosome cell rescue assay (Example B5)
In short: as §1

[4] = system: Trypanosoma brucei Lister 427 VSG221 with APOL1 G0 recombinant protein; assay: APOL1 G0 trypanosome cell rescue assay (Example B5)
In short: as §1

[5] = Trypanosoma brucei, 20 h, read-out: APOL1 G1 Trypanosome Rescue EC50, Trypanosoma brucei Lister 427 VSG221 with APOL1 G1 recombinant protein, 20 hours, CellTiter-Glo
[6] = Homo sapiens, HEK293, HEK293 overexpressing APOL1 G2
[7] = Trypanosoma brucei, 20 h, read-out: APOL1 G2 Trypanosome Rescue EC50, Trypanosoma brucei Lister 427 VSG221 with APOL1 G2 recombinant protein, 20 hours, CellTiter-Glo
[8] = Trypanosoma brucei, 20 h, read-out: APOL1 G0 Trypanosome Rescue EC50, Trypanosoma brucei Lister 427 VSG221 with APOL1 G0 recombinant protein, 20 hours, CellTiter-Glo

Compound | EC50 [1, 5] [nM] | EC50 [2, 6] [nM] | EC50 [3, 7] [nM] | EC50 [4, 8] [nM] | EC50 ([2]; HEK293 overexpressing APOL1 G2) [nM] | EC50 ([1]; read-out: APOL1 G1 Trypanosome Rescue EC50, Trypanosoma brucei Lister 427 VSG221 with APOL1 G1 recombinant protein, 20 hours, CellTiter-Glo) [nM] | EC50 ([3]; read-out: APOL1 G2 Trypanosome Rescue EC50, Trypanosoma brucei Lister 427 VSG221 with APOL1 G2 recombinant protein, 20 hours, CellTiter-Glo) [nM] | EC50 ([4]; read-out: APOL1 G0 Trypanosome Rescue EC50, Trypanosoma brucei Lister 427 VSG221 with APOL1 G0 recombinant protein, 20 hours, CellTiter-Glo) [nM]
O=C1Nc2ccc(Cl)cc2C12CCN(CCOc1ccc(S(=O)(=O)C3(CO)CC3)cc1)CC2 [Compound 225, 5-chloro-1′-[2-(4-{[1-(hydroxymethyl)cyclopropyl]sulfonyl}phenoxy)ethyl]-1,2-dihydrospiro[indole-3,4′-piperidin]-2-one] | 50.8 | 32.6 | 12.9 | 35.2 | – | – | – | –
CN1C(=O)CCc2cc(OCCN3CCC4(CC3)C(=O)Nc3ccc(Cl)cc34)ccc21 [Compound 27, 5-chloro-1′-[2-[(1-methyl-2-oxo-3,4-dihydroquinolin-6-yl)oxy]ethyl]spiro[indoline-3,4′-piperidine]-2-one] | 269 | 62 | 66.3 | 201 | – | – | – | –
O=C(c1ccc(OCCN2CCC3(CC2)C(=O)Nc2ccc(Cl)cc23)cc1F)N1CCC1 [Compound 234, 1′-{2-[4-(azetidine-1-carbonyl)-3-fluorophenoxy]ethyl}-5-chloro-1,2-dihydrospiro[indole-3,4′-piperidin]-2-one] | 475 | 80.3 | 146 | 272 | – | – | – | –
O=C1Nc2ccc(Cl)cc2C12CCN(CCOc1ccc3c(c1)CCS3(=O)=O)CC2 [Compound 196, 5-(2-{5-chloro-2-oxo-1,2-dihydrospiro[indole-3,4′-piperidin]-1′-yl}ethoxy)-2,3-dihydro-1λ^6-benzothiophene-1,1-dione] | 185 | 91.9 | 60.3 | 160 | – | – | – | –
CS(=O)(=O)c1ccc(OCCN2CCCC3(CC2)C(=O)Nc2ccccc23)cc1 (stereo not drawn) [Compound 26, 1-(2-(4-(methylsulfonyl)phenoxy)ethyl)spiro[azepane-4,3′-indolin]-2′-one] | > 4000 | 1760 | > 4000 | > 4000 | – | – | – | –
CS(=O)(=O)c1ccc(OCCN2CCC3(CC2)C(=O)Nc2ccc(C#N)cc23)cc1C(F)CF (single isomer, unassigned) [Compound 221, 1′-(2-{3-[(1S or 1R)-1,2-difluoroethyl]-4-methanesulfonyl-phenoxy}ethyl)-2-oxo-1,2-dihydrospiro [indole-3,4′-piperidine]-5-carbonitrile] | 129 | – | 29.5 | 75 | 47.4 | – | – | –
CS(=O)(=O)c1ccc(OCCN2CCC3(CC2)C(=O)N(CCO)c2ccc(C#N)cc23)cc1C(F)F [Compound 266, 1′-{2-[3-(difluoromethyl)-4-methanesulfonylphenoxy]ethyl}-1-(2-hydroxyethyl)-2-oxo-1,2-dihydrospiro[indole-3,4′-piperidine]-5-carbonitrile] | 407 | 104 | 77.1 | 236 | – | – | – | –
CC(O)c1ncc(OCCN2CCC3(CC2)C(=O)Nc2ccc(Cl)cc23)cn1 (stereo not drawn) [Compound 284, 5-chloro-1′-(2-{[2-(1-hydroxyethyl)pyrimidin-5-yl]oxy}ethyl)-1,2-dihydrospiro[indole-3,4′-piperidin]-2-one] | 943 | 199 | 235 | 808 | – | – | – | –
CN1C(=O)C2(CCN(CCOc3ccc(C4(S(C)(=O)=O)COC4)cc3)CC2)c2cc(C#N)ccc21 [Compound 251, 1′-{2-[4-(3-methanesulfonyloxetan-3-yl)phenoxy]ethyl}-1-methyl-2-oxo-1,2-dihydrospiro[indole-3,4′-piperidine]-5-carbonitrile] | 1120 | 125 | 240 | 903 | – | – | – | –
CS(=O)(=O)C1(c2ncc(OCCN3CCC4(CC3)C(=O)Nc3ccc(Cl)cc34)cn2)COC1 [Compound 276, 5-chloro-1′-(2-{[2-(3-methanesulfonyloxetan-3-yl)pyrimidin-5-yl]oxy}ethyl)-1,2-dihydrospiro[indole-3,4′-piperidin]-2-one] | 185 | 101 | 55 | 178 | – | – | – | –
CS(=O)(=O)c1ccc(OCCN2CCC3(CC2)C(=O)Nc2ccc(Cl)cc23)cc1C(F)CF (single isomer, unassigned) [Compound 218, 5-chloro-1′-(2-{3-[(1S or 1R)-1,2-difluoroethyl]-4-methanesulfonylphenoxy}ethyl)-1,2-dihydrospiro[indole-3,4′-piperidin]-2-one] | – | 25.6 | – | – | – | 108 | 31.6 | 65.1
CN(C)C(=O)c1ccc(OCCN2CCC3(CC2)C(=O)Nc2ccc(Cl)cc23)cc1F [Compound 230, 4-(2-{5-chloro-2-oxo-1,2-dihydrospiro[indole-3,4′-piperidin]-1′-yl}ethoxy)-2-fluoro-N,N-dimethylbenzamide] | 801 | 98.7 | 209 | 427 | – | – | – | –
